Experimental findings from US11649255B2, “Indazoles as hematopoietic progenitor kinase 1 (HPK1) inhibitors and methods using same” (1st Biotherapeutics, Inc., priority 2020, dated 2023) are described below.

The target in this assay is recombinant human HPK1 (Homo sapiens (Human), UniProt Q92918). As to the kind of experiment: HPK1 kinase assay (ADP-Glo). As to conditions: 25 μM ATP, MBP substrate. The assay is classed as biochemical. A digest of the protocol:
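Activity was read as ADP formed, detected by ADP-Glo luminescence after the reaction of 5 ng recombinant human HPK1 with MBP and ATP (stocks 0.5 μg/μl and 25 μM) for 40 min at 30 °C. Buffer was Tris pH 7.5 with MgCl2, BSA and DTT, with compound in 0.5% DMSO. IC50 came from inhibition curves.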

recombinant human HPK1, sequence (Q92918 whole entry): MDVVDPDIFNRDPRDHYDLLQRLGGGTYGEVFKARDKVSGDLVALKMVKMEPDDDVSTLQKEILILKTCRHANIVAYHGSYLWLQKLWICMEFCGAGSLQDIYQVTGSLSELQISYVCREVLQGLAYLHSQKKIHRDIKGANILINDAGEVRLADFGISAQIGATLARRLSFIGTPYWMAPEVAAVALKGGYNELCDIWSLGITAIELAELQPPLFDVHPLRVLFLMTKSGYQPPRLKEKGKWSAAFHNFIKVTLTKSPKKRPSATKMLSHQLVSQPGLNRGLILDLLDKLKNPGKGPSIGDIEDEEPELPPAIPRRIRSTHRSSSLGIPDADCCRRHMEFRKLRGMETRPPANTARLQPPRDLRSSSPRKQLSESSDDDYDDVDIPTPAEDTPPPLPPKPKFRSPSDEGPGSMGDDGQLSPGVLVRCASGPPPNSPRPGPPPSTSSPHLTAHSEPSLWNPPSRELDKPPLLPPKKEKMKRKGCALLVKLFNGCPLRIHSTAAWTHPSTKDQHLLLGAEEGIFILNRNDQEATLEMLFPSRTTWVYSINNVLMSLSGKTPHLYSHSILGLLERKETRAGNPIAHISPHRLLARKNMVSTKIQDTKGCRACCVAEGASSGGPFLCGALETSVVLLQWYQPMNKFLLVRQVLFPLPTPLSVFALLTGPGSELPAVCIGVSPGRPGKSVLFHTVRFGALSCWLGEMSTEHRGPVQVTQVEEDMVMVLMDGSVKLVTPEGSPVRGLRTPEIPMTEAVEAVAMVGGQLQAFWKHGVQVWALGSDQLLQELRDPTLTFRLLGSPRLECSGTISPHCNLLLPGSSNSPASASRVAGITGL

One may read the IC50 as the midpoint of a concentration-inhibition curve. Turning to `CP(C)(=O)c1c(F)c(Cl)c(-c2ccn3nc(NC(=O)[C@@H]4C[C@@H]4F)cc3c2)c2cn[nH]c12` [Example 478, (1S,2S)-N-(5-(5-chloro-7-(dimethylphosphoryl)-6-fluoro-1H-indazol-4-yl)pyrazolo[1,5-a]pyridin-2-yl)-2-fluorocyclopropane-1-carboxamide], the IC50 was in the range of 501 to 1000 nM. Take `Cc1c(F)c(Cl)c2[nH]ncc2c1-c1ccn2nc(NC(=O)[C@@H]3C[C@@H]3F)cc2c1` [Example 479, (1S,2S)-N-(5-(7-chloro-6-fluoro-5-methyl-1H-indazol-4-yl)pyrazolo[1,5-a]pyridin-2-yl)-2-fluorocyclopropane-1-carboxamide]: the half-maximal inhibitory concentration (IC50) is below 100 nM. As for `O=C(Nc1cc2cc(-c3c(Cl)c(F)c(Br)c4[nH]ncc34)ccn2n1)[C@@H]1C[C@@H]1F` [Example 480, (1S,2S)-N-(5-(7-bromo-5-chloro-6-fluoro-1H-indazol-4-yl)pyrazolo[1,5-a]pyridin-2-yl)-2-fluorocyclopropane-1-carboxamide], the IC50 was below 100 nM. In the case of `Cc1c(F)c(F)c2[nH]ncc2c1-c1ccn2nc(NC(=O)[C@@H]3C[C@@H]3F)cc2c1` [Example 481, (1S,2S)-N-(5-(6,7-difluoro-5-methyl-1H-indazol-4-yl)pyrazolo[1,5-a]pyridin-2-yl)-2-fluorocyclopropane-1-carboxamide], the IC50 is below 100 nM.

Consider `Cc1c(F)c(C(F)(F)F)c2[nH]ncc2c1-c1ccn2nc(NC(=O)[C@@H]3C[C@@H]3F)cc2c1` [Example 482, (1S,2S)-2-fluoro-N-(5-(6-fluoro-5-methyl-7-(trifluoromethyl)-1H-indazol-4-yl)pyrazolo[1,5-a]pyridin-2-yl)cyclopropane-1-carboxamide], for which the IC50 is below 100 nM.

In the case of `C=Cc1cc(C)c(-c2ccn3nc(NC(=O)[C@@H]4C[C@@H]4F)cc3c2)c2cn[nH]c12` [Example 483, (1S,2S)-2-fluoro-N-(5-(5-methyl-7-vinyl-1H-indazol-4-yl)pyrazolo[1,5-a]pyridin-2-yl)cyclopropane-1-carboxamide], the 50% inhibitory concentration (IC50) is below 100 nM. Regarding `CSc1c(F)c(Cl)c(-c2ccn3nc(NC(=O)[C@@H]4C[C@@H]4F)cc3c2)c2cn[nH]c12` [Example 485, (1S,2S)-N-(5-(5-chloro-6-fluoro-7-(methylthio)-1H-indazol-4-yl)pyrazolo[1,5-a]pyridin-2-yl)-2-fluorocyclopropane-1-carboxamide], the IC50 was below 100 nM. The value for `CS(=O)(=O)c1c(F)c(Cl)c(-c2ccn3nc(NC(=O)[C@@H]4C[C@@H]4F)cc3c2)c2cn[nH]c12` [Example 486, (1S,2S)-N-(5-(5-chloro-6-fluoro-7-(methylsulfonyl)-1H-indazol-4-yl)pyrazolo[1,5-a]pyridin-2-yl)-2-fluorocyclopropane-1-carboxamide] was below 100 nM. Take `Cc1c(F)c(Br)c2[nH]ncc2c1-c1ccn2nc(NC(=O)[C@@H]3C[C@@H]3F)cc2c1` [Example 487, (1S,2S)-N-(5-(7-bromo-6-fluoro-5-methyl-1H-indazol-4-yl)pyrazolo[1,5-a]pyridin-2-yl)-2-fluorocyclopropane-1-carboxamide]: the IC50 is below 100 nM. As to `Cc1c(F)c(S(C)(=O)=O)c2[nH]ncc2c1-c1ccn2nc(NC(=O)[C@@H]3C[C@@H]3F)cc2c1` [Example 489, (1S,2S)-2-fluoro-N-(5-(6-fluoro-5-methyl-7-(methylsulfonyl)-1H-indazol-4-yl)pyrazolo[1,5-a]pyridin-2-yl)cyclopropane-1-carboxamide], the IC50 is below 100 nM.

In the case of `Cc1c(F)c(N(C)C)c2[nH]ncc2c1-c1ccn2nc(NC(=O)[C@@H]3C[C@@H]3F)cc2c1` [Example 490, (1S,2S)-N-(5-(7-(dimethylamino)-6-fluoro-5-methyl-1H-indazol-4-yl)pyrazolo[1,5-a]pyridin-2-yl)-2-fluorocyclopropane-1-carboxamide], the IC50 was below 100 nM. With `COc1c(F)c(C)c(-c2ccn3nc(NC(=O)[C@@H]4C[C@@H]4F)cc3c2)c2cn[nH]c12` [Example 491, (1S,2S)-2-fluoro-N-(5-(6-fluoro-7-methoxy-5-methyl-1H-indazol-4-yl)pyrazolo[1,5-a]pyridin-2-yl)cyclopropane-1-carboxamide], the IC50 was below 100 nM. Take `COc1c(F)c(Cl)c(-c2ccn3nc(NC(=O)[C@@H]4C[C@@H]4F)cc3c2)c2cn[nH]c12` [Example 492, (1S,2S)-N-(5-(5-chloro-6-fluoro-7-methoxy-1H-indazol-4-yl)pyrazolo[1,5-a]pyridin-2-yl)-2-fluorocyclopropane-1-carboxamide]: the IC50 is below 100 nM.

For the compound `CCOc1c(F)c(Cl)c(-c2ccn3nc(NC(=O)[C@@H]4C[C@@H]4F)cc3c2)c2cn[nH]c12` [Example 493, (1S,2S)-N-(5-(5-chloro-7-ethoxy-6-fluoro-1H-indazol-4-yl)pyrazolo[1,5-a]pyridin-2-yl)-2-fluorocyclopropane-1-carboxamide], the concentration for half-maximal inhibition (IC50) is below 100 nM. With `CNc1c(F)c(Cl)c(-c2ccn3nc(NC(=O)[C@@H]4C[C@@H]4F)cc3c2)c2cn[nH]c12` [Example 494, (1S,2S)-N-(5-(5-chloro-6-fluoro-7-(methylamino)-1H-indazol-4-yl)pyrazolo[1,5-a]pyridin-2-yl)-2-fluorocyclopropane-1-carboxamide], the concentration for half-maximal inhibition (IC50) is below 100 nM. `CN1CCN(c2c(F)c(Cl)c(-c3ccn4nc(NC(=O)[C@@H]5C[C@@H]5F)cc4c3)c3cn[nH]c23)CC1` [Example 495, (1S,2S)-N-(5-(5-chloro-6-fluoro-7-(4-methylpiperazin-1-yl)-1H-indazol-4-yl)pyrazolo[1,5-a]pyridin-2-yl)-2-fluorocyclopropane-1-carboxamide]: the IC50 is below 100 nM. For the compound `CCNc1c(F)c(Cl)c(-c2ccn3nc(NC(=O)[C@@H]4C[C@@H]4F)cc3c2)c2cn[nH]c12` [Example 496, (1S,2S)-N-(5-(5-chloro-7-(ethylamino)-6-fluoro-1H-indazol-4-yl)pyrazolo[1,5-a]pyridin-2-yl)-2-fluorocyclopropane-1-carboxamide], the IC50 is below 100 nM. Regarding `CCN(CC)c1c(F)c(Cl)c(-c2ccn3nc(NC(=O)[C@@H]4C[C@@H]4F)cc3c2)c2cn[nH]c12` [Example 497, (1S,2S)-N-(5-(5-chloro-7-(diethylamino)-6-fluoro-1H-indazol-4-yl)pyrazolo[1,5-a]pyridin-2-yl)-2-fluorocyclopropane-1-carboxamide], the half-maximal inhibitory concentration (IC50) was below 100 nM. Take `O=C(Nc1cc2cc(-c3c(Cl)c(F)c(N4CCOCC4)c4[nH]ncc34)ccn2n1)[C@@H]1C[C@@H]1F` [Example 498, (1S,2S)-N-(5-(5-chloro-6-fluoro-7-morpholino-1H-indazol-4-yl)pyrazolo[1,5-a]pyridin-2-yl)-2-fluorocyclopropane-1-carboxamide]: the IC50 is below 100 nM. The value for `O=C(Nc1cc2cc(-c3c(Cl)c(F)c(N4CCCC4)c4[nH]ncc34)ccn2n1)[C@@H]1C[C@@H]1F` [Example 499, (1S,2S)-N-(5-(5-chloro-6-fluoro-7-(pyrrolidin-1-yl)-1H-indazol-4-yl)pyrazolo[1,5-a]pyridin-2-yl)-2-fluorocyclopropane-1-carboxamide] was below 100 nM. As for `O=C(Nc1cc2cc(-c3c(Cl)c(F)c(N4CCNCC4)c4[nH]ncc34)ccn2n1)[C@@H]1C[C@@H]1F` [Example 500, (1S,2S)-N-(5-(5-chloro-6-fluoro-7-(piperazin-1-yl)-1H-indazol-4-yl)pyrazolo[1,5-a]pyridin-2-yl)-2-fluorocyclopropane-1-carboxamide], the IC50 is 101 to 500 nM. As for `O=C(Nc1cc2cc(-c3c(Cl)c(F)c(N4CCC4)c4[nH]ncc34)ccn2n1)[C@@H]1C[C@@H]1F` [Example 501, (1S,2S)-N-(5-(7-(azetidin-1-yl)-5-chloro-6-fluoro-1H-indazol-4-yl)pyrazolo[1,5-a]pyridin-2-yl)-2-fluorocyclopropane-1-carboxamide], the IC50 is below 100 nM. In the case of `CN(C)C1CCC(N(C)c2c(F)c(Cl)c(-c3ccn4nc(NC(=O)[C@@H]5C[C@@H]5F)cc4c3)c3cn[nH]c23)CC1` (stereo partly drawn) [Example 502, (1S,2S)-N-(5-(5-chloro-7-((4-(dimethylamino)cyclohexyl)(methyl)amino)-6-fluoro-1H-indazol-4-yl)pyrazolo[1,5-a]pyridin-2-yl)-2-fluorocyclopropane-1-carboxamide], the IC50 is below 100 nM. As to `CNC1CCC(N(C)c2c(F)c(Cl)c(-c3ccn4nc(NC(=O)[C@@H]5C[C@@H]5F)cc4c3)c3cn[nH]c23)CC1` (stereo partly drawn) [Example 504, (1S,2S)-N-(5-(5-chloro-6-fluoro-7-(methyl((1R,4R)-4-(methylamino)cyclohexyl)amino)-1H-indazol-4-yl)pyrazolo[1,5-a]pyridin-2-yl)-2-fluorocyclopropane-1-carboxamide], the half-maximal inhibitory concentration (IC50) was below 100 nM.

With `CNC1CCC(N(C)c2c(F)c(Cl)c(-c3ccn4nc(NC(=O)[C@@H]5C[C@@H]5F)cc4c3)c3cn[nH]c23)CC1` (stereo partly drawn) [Example 505, (1S,2S)-N-(5-(5-chloro-6-fluoro-7-(methyl((1S,4S)-4-(methylamino)cyclohexyl)amino)-1H-indazol-4-yl)pyrazolo[1,5-a]pyridin-2-yl)-2-fluorocyclopropane-1-carboxamide], the concentration for half-maximal inhibition (IC50) was below 100 nM.

For `COc1cc(C)c(-c2ccn3nc(NC(=O)[C@@H]4C[C@@H]4F)cc3c2)c2cn[nH]c12` [Example 506, (1S,2S)-2-fluoro-N-(5-(7-methoxy-5-methyl-1H-indazol-4-yl)pyrazolo[1,5-a]pyridin-2-yl)cyclopropane-1-carboxamide], the IC50 was below 100 nM. The value for `O=C(Nc1cc2cc(-c3c(Cl)c(F)c(OCC4CCCO4)c4[nH]ncc34)ccn2n1)[C@@H]1C[C@@H]1F` (stereo partly drawn) [Example 507, (1S,2S)-N-(5-(5-chloro-6-fluoro-7-((tetrahydrofuran-2-yl)methoxy)-1H-indazol-4-yl)pyrazolo[1,5-a]pyridin-2-yl)-2-fluorocyclopropane-1-carboxamide] was below 100 nM.
